According to PubChem BioAssay AID1963427 (Molecular Pharmacology Branch, DTP, NCI, 2024):

System: 317291-083-R-J1-PDC complex spheroid growth
Test: Anticancer human tumor 317291-083-R-J1-PDC patient-derived soft tissue sarcoma cell line growth inhibition [Asc]
Conditions: for IC50: curve of first compound; for viability, T/C: stronger effect = lower value
Outline: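 Complex solid-tumor spheroids incorporating human endothelial and mesenchymal stem cells received single agents or combinations over half-log dilution ranges anchored to clinical Cmax.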
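Also: compound exposure lasted seven days after spheroids formed for three days.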
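For viability, T/C in this document: 100% = DMSO vehicle control wells.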

SMILES: NC(=O)C(=Cn1cnc(-c2cc(C(F)(F)F)cc(C(F)(F)F)c2)n1)c1cncnc1 + Cc1c(S(C)(=O)=O)c(-c2cc(F)cc(N3CCN(c4ccc(NS(=O)(=O)c5ccc(NC(CCN6CCC(C(=O)OCCCP(=O)(O)O)CC6)CSc6ccccc6)c(S(=O)(=O)C(F)(F)F)c5)cc4)CC3)c2)c(-c2ccc(Cl)cc2)n1C(C)C
- IC50 (second compound 0.0316 µM): 19.5 nM
- IC50 (second compound 0.1 µM): 26.3 nM
- IC50 (second compound 0.316 µM): 15.5 nM
- IC50 (second compound 1 µM): 17.8 nM
- IC50 (second compound 3.16 µM): 14.4 nM
- IC50 (second compound 10 µM): 24.2 nM
- viability, T/C (second compound 0.0316 µM, first compound 0.000949 µM): 105%
- viability, T/C (second compound 0.0316 µM, first compound 0.003 µM): 73.8%
- viability, T/C (second compound 0.0316 µM, first compound 0.00949 µM): 71.2%
- viability, T/C (second compound 0.0316 µM, first compound 0.03 µM): 47.7%
- viability, T/C (second compound 0.0316 µM, first compound 0.0949 µM): 3.73%
- viability, T/C (second compound 0.0316 µM, first compound 0.3 µM): 1.57%
- viability, T/C (second compound 0.1 µM, first compound 0.000949 µM): 98.8%
- viability, T/C (second compound 0.1 µM, first compound 0.003 µM): 94.7%
- viability, T/C (second compound 0.1 µM, first compound 0.00949 µM): 72.6%
- viability, T/C (second compound 0.1 µM, first compound 0.03 µM): 53.8%
- viability, T/C (second compound 0.1 µM, first compound 0.0949 µM): 4.66%
- viability, T/C (second compound 0.1 µM, first compound 0.3 µM): 0.74%
- viability, T/C (second compound 0.316 µM, first compound 0.000949 µM): 99.6%
- viability, T/C (second compound 0.316 µM, first compound 0.003 µM): 114%
- viability, T/C (second compound 0.316 µM, first compound 0.00949 µM): 59.6%
- viability, T/C (second compound 0.316 µM, first compound 0.03 µM): 31.9%
- viability, T/C (second compound 0.316 µM, first compound 0.0949 µM): 1.71%
- viability, T/C (second compound 0.316 µM, first compound 0.3 µM): 0.54%
- viability, T/C (second compound 1 µM, first compound 0.000949 µM): 89.3%
- viability, T/C (second compound 1 µM, first compound 0.003 µM): 88.8%
- viability, T/C (second compound 1 µM, first compound 0.00949 µM): 69.8%
- viability, T/C (second compound 1 µM, first compound 0.03 µM): 33.5%
- viability, T/C (second compound 1 µM, first compound 0.0949 µM): 5.89%
- viability, T/C (second compound 1 µM, first compound 0.3 µM): 0.53%
- viability, T/C (second compound 3.16 µM, first compound 0.000949 µM): 74.7%
- viability, T/C (second compound 3.16 µM, first compound 0.003 µM): 76.1%
- viability, T/C (second compound 3.16 µM, first compound 0.00949 µM): 59.4%
- viability, T/C (second compound 3.16 µM, first compound 0.03 µM): 31.6%
- viability, T/C (second compound 3.16 µM, first compound 0.0949 µM): 2.57%
- viability, T/C (second compound 3.16 µM, first compound 0.3 µM): 0.29%
- viability, T/C (second compound 10 µM, first compound 0.000949 µM): 105%
- viability, T/C (second compound 10 µM, first compound 0.003 µM): 118%
- viability, T/C (second compound 10 µM, first compound 0.00949 µM): 84.4%
- viability, T/C (second compound 10 µM, first compound 0.03 µM): 44.5%
- viability, T/C (second compound 10 µM, first compound 0.0949 µM): 1.64%
- viability, T/C (second compound 10 µM, first compound 0.3 µM): 0.33%

SMILES: NC1CCC(NC2CC2c2ccccc2)CC1 (centres undefined) + Cc1c(S(C)(=O)=O)c(-c2cc(F)cc(N3CCN(c4ccc(NS(=O)(=O)c5ccc(NC(CCN6CCC(C(=O)OCCCP(=O)(O)O)CC6)CSc6ccccc6)c(S(=O)(=O)C(F)(F)F)c5)cc4)CC3)c2)c(-c2ccc(Cl)cc2)n1C(C)C
- IC50 (second compound 0.0316 µM): > 100 nM
- IC50 (second compound 0.1 µM): > 100 nM
- IC50 (second compound 0.316 µM): > 100 nM
- IC50 (second compound 1 µM): > 100 nM
- IC50 (second compound 3.16 µM): > 100 nM
- IC50 (second compound 10 µM): > 100 nM
- viability, T/C (second compound 0.0316 µM, first compound 0.000316 µM): 120%
- viability, T/C (second compound 0.0316 µM, first compound 0.001 µM): 87.3%
- viability, T/C (second compound 0.0316 µM, first compound 0.00316 µM): 98.2%
- viability, T/C (second compound 0.0316 µM, first compound 0.01 µM): 99%
- viability, T/C (second compound 0.0316 µM, first compound 0.0316 µM): 106%
- viability, T/C (second compound 0.0316 µM, first compound 0.1 µM): 86.5%
- viability, T/C (second compound 0.1 µM, first compound 0.000316 µM): 107%
- viability, T/C (second compound 0.1 µM, first compound 0.001 µM): 78.9%
- viability, T/C (second compound 0.1 µM, first compound 0.00316 µM): 90.2%
- viability, T/C (second compound 0.1 µM, first compound 0.01 µM): 76.9%
- viability, T/C (second compound 0.1 µM, first compound 0.0316 µM): 77.6%
- viability, T/C (second compound 0.1 µM, first compound 0.1 µM): 83.9%
- viability, T/C (second compound 0.316 µM, first compound 0.000316 µM): 93.9%
- viability, T/C (second compound 0.316 µM, first compound 0.001 µM): 100%
- viability, T/C (second compound 0.316 µM, first compound 0.00316 µM): 80.2%
- viability, T/C (second compound 0.316 µM, first compound 0.01 µM): 106%
- viability, T/C (second compound 0.316 µM, first compound 0.0316 µM): 109%
- viability, T/C (second compound 0.316 µM, first compound 0.1 µM): 90.5%
- viability, T/C (second compound 1 µM, first compound 0.000316 µM): 73.3%
- viability, T/C (second compound 1 µM, first compound 0.001 µM): 75%
- viability, T/C (second compound 1 µM, first compound 0.00316 µM): 93%
- viability, T/C (second compound 1 µM, first compound 0.01 µM): 74.3%
- viability, T/C (second compound 1 µM, first compound 0.0316 µM): 107%
- viability, T/C (second compound 1 µM, first compound 0.1 µM): 74.1%
- viability, T/C (second compound 3.16 µM, first compound 0.000316 µM): 72.7%
- viability, T/C (second compound 3.16 µM, first compound 0.001 µM): 81.7%
- viability, T/C (second compound 3.16 µM, first compound 0.00316 µM): 79%
- viability, T/C (second compound 3.16 µM, first compound 0.01 µM): 69.9%
- viability, T/C (second compound 3.16 µM, first compound 0.0316 µM): 87.6%
- viability, T/C (second compound 3.16 µM, first compound 0.1 µM): 76%
- viability, T/C (second compound 10 µM, first compound 0.000316 µM): 95.6%
- viability, T/C (second compound 10 µM, first compound 0.001 µM): 91.9%
- viability, T/C (second compound 10 µM, first compound 0.00316 µM): 97.8%
- viability, T/C (second compound 10 µM, first compound 0.01 µM): 87.8%
- viability, T/C (second compound 10 µM, first compound 0.0316 µM): 94%
- viability, T/C (second compound 10 µM, first compound 0.1 µM): 73.7%
